Assay type in all cases: physicochemical
Series [1] can be described thus: Emulsion stability 1 week at 40° C. (appearance, assay, Z-Ave, PFAT5). To be noted: emulsions at 2-8° C. and after 8 days at 40° C. On the procedure:
Procedure: • Prepared all vehicles by mixing lipid and aqueous phase ingredients and homogenized. • Added Compound A (Form A) at 0.3% concentration in each vehicle. • Homogenized and mixed overnight until uniform or achieved equilibrium. • Filtered emulsion through 0.45 μm Nylon membrane filter. • Evaluated appearance, drug concentration by HPLC assay, average droplet size and PFAT5. • Selected the top 5-10 formulations achieving acceptance criteria initially. • Placed at 40° C. for up to 2 weeks to monitor emulsion stability. • Selected the top 3-5 formulations meeting the proposed requirements after 1-2 weeks at 40° C.
Methods: • Appearance: Record visual observation • Z-ave (nm): Measure mean oil droplet size by ZetaSizer (Malvern Instrument). Dilute 50 μL sample with 950 μL DI water at room temperature • Assay (%): Use the current HPLC method • Spin-X: Pass 0.5 mL emulsion through CoStar® Spin-X 0.2 μm Nylon filter (0.7 cm^2 surface area) at 3,144 G-force centrifuge for 60 sec at ambient room temperature. Evaluate completeness of emulsion passing through the filter.

Series [2] in a line: Initial formulations: Compound A saturation assay (HPLC) and appearance in template emulsion vehicles. The following applies: emulsion composition containing ≥10% egg lecithin, aqueous with cosolvent or surfactant or cyclodextrin, thermodynamic from solid. On the procedure:
Ten compositions were prepared using various template compositions, containing lecithin, soybean oil (SBO) or medium chain triglycerides (MCT), glycerin or sucrose (non-ionic tonicity agent), edetate disodium di-hydrate (EDTA, chelating agent) in deionized water. Compound A (Form A) was added and agitated to reach solubility equilibrium at ambient room temperature. Each formulation was prepared in the following steps: Compound A (5 mg) was dispersed in each template vehicle. The formulation were then homogenized and at room temperature for >24 h and then passed sample through 0.45 μm filter for analysis (HPLC).

The nature of series [3]: Solubility of Compound A in F57, summary of all 7 methods. The following applies: F57, thermodynamic from solid, read-out: Measured Solubility. The text has this: The term “solubility” used herein is defined as Compound A concentration where Compound A has reached a dissolution-precipitation equilibrium in F57 at a selected temperature. […] On the other hand, if Compound A concentration is higher than the solubility, Compound A is expected to precipitate over time.
(§1) To investigate the causes of precipitation and determine the Compound A solubility in F57 vehicle, the following seven (7) methods were applied to accurately determine solubility of Compound A in F57: • Method 1: Formulate Compound A in F57 at varied concentrations using GMP grade of Compound A and excipients with the regular process • Method 2: Formulate Compound A in F57 by introducing Compound A into a pre-formed F57 vehicle • Method 3: Observe Compound A in the previously made batches which already had extended incubation • Method 4: Conduct “top-down” and a “bottom-up” solubility studies in F57 vehicle • Method 5: Agitate Compound A GMP batch of F57 to promote the dissolution-precipitation equilibrium • Method 6: Add extra Form B seeds to Compound A GMP batch of F57 to promote Compound A crystal growth and precipitation • Method 7: Add Form B seeds to the samples made in method 1 to promote Compound A crystal growth and precipitation
For solubility determination, a F57 sample (usually about 0.5 mL) was filtered through a 0.22 μm centrifuge filter (Costar Spin-X®+, P/N8169), the filtrate (free of any solid particle) was collected, diluted with isopropanol, and tested for Compound A concentration using the following HPLC method. Dissolution-precipitation equilibrium is reached once the measured filtrate concentration is constant, and that concentration can be regarded as the solubility.
Table 40 summarizes the general conditions used in the seven methods to promote the dissolution-precipitation equilibrium. Detailed procedures are described in each method section.
The general observation and findings by all 7 methods are summarized in the table 50, according to the detailed observation and discussion pertaining to each method.

A short description of series [4]: Solubility of Compound A in F57, Method 6: Form B seeds added to GMP batch. To be noted: F57 emulsion (GMP batch), 2 °C, thermodynamic from solid; 2-8° C.; read-out: API solubility in F57.
Excerpt: as §1
For solubility determination, a F57 sample (usually about 0.5 mL) was filtered through a 0.22 μm centrifuge filter (Costar Spin-X®+, P/N8169), the filtrate (free of any solid particle) was collected, diluted with isopropanol, and tested for Compound A concentration using the following HPLC method. […]

The nature of series [5]: Stability of Formulation F-9 (small scale), 2 weeks at 2-8° C. and 25° C. The following applies: F-9 emulsion, after 2 weeks at 2-8° C. and 25° C. On the procedure:
Procedures: Compound A (Form A) was added to F-9 vehicle containing MCT/Egg/lecithin/Sucrose/EDTA in a plastic tube. The formulation was mixed until uniform and complete drug dissolution. The emulsion was sterilized through 0.2 μm membrane filter. The samples were placed at 2-8° C. and 25° C. for stability evaluation for 2 weeks. The samples were tested for appearance, pH, Compound A assay and purity by HPLC, mean droplet size and globule size distribution in lipid injectable emulsions (USP<729>) and the results are shown in Table 17.

Converted amounts (≈) assume the structure as drawn.

Consider 1 compound from patent US20240058332A1, “CRAC CHANNEL INHIBITOR COMPOSITIONS” (CalciMedica, Inc., priority 2017, published 2024).

The term solubility denotes how much of the substance goes into solution per volume.

In the case of `Cc1cccc(F)c1C(=O)Nc1cnc(-c2cc3c(cc2Cl)OC(F)(F)O3)cn1` [Compound A, N-(5-(6-chloro-2,2-difluorobenzo[d][1,3]dioxol-5-yl)pyrazin-2-yl)-2-fluoro-6-methylbenzamide], the “% purity on stability” value in series [1] is listed as 99.9%. In addition, the solubility is at least 2400 µg/mL in series [2]; 1800 to 1900 µg/mL (≈ 4.27 to 4.5 mM) in series [3] (in F57, Method 2, Equilibrium reached); 1800 µg/mL (≈ 4.27 mM) in series [3] (in F57, Method 4, Equilibrium reached); 1800 to 1900 µg/mL (≈ 4.27 to 4.5 mM) in series [3] (in F57, Method 5, Equilibrium reached); 1800 to 1900 µg/mL (≈ 4.27 to 4.5 mM) in series [3] (in F57, Method 6, Equilibrium reached); 1800 to 1900 µg/mL (≈ 4.27 to 4.5 mM) in series [3] (in F57, Method 7, Equilibrium reached). Moreover, the solubility in series [4] was in the range of 1800 to 1900 µg/mL (≈ 4.27 to 4.5 mM). In addition, the “appearance and HPLC assay on stability” value in series [5] is on record as “remained unchanged”.
